Test results from patent publication US8163909B2, “Substituted hydroxyethyl amine compounds as beta-secretase modulators and methods of use” (Amgen Inc., priority 2007, dated 2012).
Like-named read-outs stand apart in the source and are kept apart here.

What was measured:
[1] = biological target: Beta Secretase enzyme (BACE) (Homo sapiens, UniProt P56817); assay: In vitro enzymatic BACE FRET (fluorescence resonance energy transfer) assay; assay type: biochemical;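 further: fluorescence read after 1 h with 50 nM quenched peptide substrate spanning the BACE cleavage site, in pH 4.2 acetate buffer containing 10% DMSO and nonionic detergent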
Beta Secretase enzyme (BACE), sequence (P56817 46-501): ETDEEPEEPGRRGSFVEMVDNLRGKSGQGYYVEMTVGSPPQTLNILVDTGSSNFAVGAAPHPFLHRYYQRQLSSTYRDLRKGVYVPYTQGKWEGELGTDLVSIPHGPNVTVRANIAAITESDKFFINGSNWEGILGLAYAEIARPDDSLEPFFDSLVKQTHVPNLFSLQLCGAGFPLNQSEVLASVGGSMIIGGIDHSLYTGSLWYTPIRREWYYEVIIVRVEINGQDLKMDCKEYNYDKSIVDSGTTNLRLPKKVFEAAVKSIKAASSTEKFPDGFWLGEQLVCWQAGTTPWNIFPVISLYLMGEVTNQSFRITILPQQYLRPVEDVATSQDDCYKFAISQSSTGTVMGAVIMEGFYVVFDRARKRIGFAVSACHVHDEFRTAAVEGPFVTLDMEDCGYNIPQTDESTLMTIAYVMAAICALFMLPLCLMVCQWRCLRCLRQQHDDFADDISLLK

[2] = test system: Aβ40 in conditioned medium of cells stably expressing Amyloid Precursor Protein (APP); assay: In vitro BACE cell-based assay (Aβ40 in conditioned medium, sandwich ELISA);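 further: compounds added as a dilution series, secreted peptide quantified by europium time-resolved fluorescence readout, potency fitted from percent of control versus compound concentration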
[3] = BACE enzyme FRET assay, read-out: BACE1 FRET assay (IC50)
[4] = Homo sapiens, HEK293, HEK cells, cell-based assay, read-out: HEK cell assay (IC50)
[5] = Table 1, read-out: BACE1 FRET assay
[6] = Homo sapiens, HEK293, Table 1, HEK cells, read-out: HEK cell assay
[7] = BACE enzyme assay, read-out: BACE1 FRET assay (IC50)
[8] = BACE enzyme assay, IC50's in uM, read-out: BACE1 FRET assay
[9] = Homo sapiens, HEK293, cell-based assay, HEK cells, IC50's in uM, read-out: HEK cell assay

Row | Structure (SMILES) | IC50 [1, 3] [µM] | IC50 [2, 4] [µM] | IC50 [1, 7] [µM] | also measured
1 | COCC(=O)N[C@@H](Cc1ccc2c(c1)OCO2)[C@@H](CN[C@H]1CC2(CCC2)Oc2ncc([C@H](F)C(C)(C)C)cc21)OC [compound 196] | 2.64 | 3.99 | – | –
2 | CO[C@H](C)C(=O)N[C@@H](Cc1ccc2c(c1)OCO2)[C@H](O)CN[C@H]1CC2(CCC2)Oc2ncc(CCC(F)(F)F)cc21 [compound 194] | 1.07 | 1.52 | – | –
3 | COCC(=O)N[C@@H](Cc1ccccc1)[C@H](O)CN[C@H]1CC2(CCC2)Oc2ncc(CC3(C(F)(F)F)CC3)cc21 [compound 319] | – | – | – | IC50 [1, 5]: 0.0558 µM; IC50 [2, 6]: 0.309 µM
4 | CO[C@H](C)C(=O)N[C@@H](Cc1cccc(F)c1F)[C@H](O)CN[C@H]1CC2(CCC2)Oc2ncc(CC(C)(C)F)cc21 [compound 71] | – | 0.0927 | 0.0339 | –
5 | CO[C@H](C)C(=O)N[C@@H](Cc1ccc2c(c1)OCO2)[C@H](O)CN[C@H]1CC2(CCC2)Oc2ncc(C[C@@H](C)C(F)(F)F)cc21 [compound 342] | – | – | – | IC50 [1, 5]: 0.175 µM; IC50 [2, 6]: 0.343 µM
6 | COCC(=O)N[C@@H](Cc1cccc(F)c1)[C@H](O)CN[C@H]1CC2(CCC2)Oc2ncc(CC(C)(C)C(F)F)cc21 [compound 218] | 0.00438 | 0.00525 | – | –
7 | CC(=O)Nc1cnc2c(c1)[C@@H](NC[C@@H](O)[C@H](Cc1ccc(F)cc1)NC(C)=O)CC1(CCC1)O2 [compound 83, N-((1S,2R)-3-(((4′S)-6′-(acetylamino)-3′,4′-dihydrospiro[cyclobutane-1,2′-pyrano[2,3-b]pyridin]-4′-yl)amino)-1-((4-fluorophenyl)methyl)-2-hydroxypropyl)acetamide] | – | > 10 | 0.593 | –
8 | CC(C)(C)Cc1cnc2c(c1)[C@@H](NC[C@@H](O)[C@H](Cc1cccc(F)c1)NC(=O)C(F)(F)Cl)CC1(CCC1)O2 [compound 108] | – | 0.0906 | 0.00506 | –
9 | CC(=O)N[C@@H](Cc1ccc2c(c1)OCCO2)[C@H](O)CN[C@H]1CC2(CCC2)Oc2ncc(CC(C)(C)C)cc21 [compound 205] | 0.0229 | 0.0229 | – | –
10 | CO[C@H](C)C(=O)N[C@@H](Cc1cccc(F)c1)[C@H](O)CN[C@H]1CC2(CCC2)Oc2ncc(CC(F)(F)F)cc21 [compound 344] | – | – | – | IC50 [1, 5]: 0.00894 µM; IC50 [2, 6]: 0.0442 µM
11 | CC(=O)N[C@@H](Cc1ccc(F)cc1)[C@H](O)CN[C@H]1C[C@@]2(CC[C@H]2O)Oc2ncc(CC(C)(C)C)cc21 [compound 116] | – | 0.148 | 0.117 | –
12 | CC(=O)N[C@@H](Cc1ccc2c(c1)OCO2)[C@H](O)CN[C@H]1CC2(CCC2)Cc2ncc(CC(C)(C)C)cc21 [compound 167] | – | 0.0684 | 0.125 | –
13 | CC(C)(C)Cc1cnc2c(c1)[C@@H](NC[C@@H](O)[C@H](Cc1cccc(C#N)c1)NC(=O)[C@H](O)C(F)(F)F)CC1(CCC1)O2 [compound 61] | – | 0.00965 | 0.00323 | –
14 | COC(C)C(=O)NC(Cc1cc(F)c2c(c1)OCO2)C(O)CNC1CC2(CCC2)Oc2ncc(CC(C)(C)C)cc21 (stereo not drawn) [compound 300] | 0.0571 | 0.137 | – | –
15 | COCC(=O)N[C@@H](Cc1cc(Cl)c2c(c1)OCO2)[C@H](O)CN[C@H]1CC2(CCC2)Oc2ncc(CC(C)(C)C)cc21 [compound 208] | 0.00641 | 0.00996 | – | –
16 | CC(=O)N[C@@H](Cc1ccc2c(c1)OCO2)[C@H](O)CN[C@H]1CC2(CCC2)Oc2cnc(C(F)(F)F)cc21 [compound 265] | 9.6 | 0.388 | – | –
17 | COCC(=O)N[C@@H](Cc1ccc(F)c(OC(F)(F)F)c1)[C@H](O)CN[C@H]1CC2(CCC2)Oc2ncc(CC(C)(C)C)cc21 [compound 81] | – | 0.014 | 0.00251 | –
18 | COC(C)C(=O)NC(Cc1cc(F)cc(F)c1)C(O)CNC1CC2(CCC2)Oc2ncc(CC(C)(C)C)cc21 [compound 102, (R)—N-((2S,3R)-1-(3,5-difluorophenyl)-3-hydroxy-4-((S)-6-neopentyl-3,4-dihydrospiro[cyclobutane-1,2H-pyrano[2,3-b]pyridin-4-ylamino)butan-2-yl)-2-methoxypropanamide] | – | – | 0.0053 | IC50 ([2]; HEK cells, cell-based assay, read-out: HEK cell assay (IC50)): 0.0106 µM
19 | CC(=O)N[C@@H](Cc1cc(F)cc(F)c1)[C@H](O)CN[C@H]1CC2(CCCC2)C(=O)c2ccc(CC(C)(C)C)cc21 [compound 90] | – | 0.0747 | 0.0103 | –
20 | COCC(=O)N[C@@H](Cc1ccc2c(c1)OCO2)[C@H](O)CN[C@H]1CC2(CCC2)Oc2c1cc(CC(C)(C)C)nc2N1CCCC1 [compound 130] | – | 0.055 | 0.0541 | –
21 | CO[C@@H](C(=O)N[C@@H](Cc1ccc(F)cc1)[C@H](O)CN[C@H]1CC2(CCC2)Oc2ncc(CC(C)(C)C)cc21)C(F)(F)F [compound 63] | – | 0.128 | 0.258 | –

Row | Structure (SMILES) | IC50 [1, 3] [µM] | IC50 [2, 4] [µM] | IC50 [1, 7] [µM] | also measured
22 | CC(C)(C)Cc1cnc2c(c1)[C@@H](NC[C@@H](O)[C@H](Cc1cc(F)cc(F)c1)NC(=O)C(C)(Cl)Cl)CC1(CCC1)O2 [compound 97] | – | 0.385 | 0.0138 | –
23 | COCC(=O)N[C@@H](Cc1cccc(F)c1)[C@H](O)CN[C@H]1CC2(CCC2)Oc2c1cc(CC(C)(C)C)nc2NCC(F)(F)F [compound 143] | – | 0.314 | 0.0195 | –
24 | CO[C@H](C)C(=O)N[C@@H](Cc1cc(Br)c2c(c1)OCO2)[C@H](O)CN[C@H]1CC2(CCC2)Oc2ncc(CC(C)(C)C)cc21 [compound 210, (2R)—N-((1S,2R)-1-((7-bromo-1,3-benzodioxol-5-yl)methyl)-3-(((4′S)-6′-(2,2-dimethylpropyl)-3′,4′-dihydrospiro[cyclobutane-1,2′-pyrano[2,3-b]pyridin]-4′-yl)amino)-2-hydroxypropyl)-2-(methyloxy)propanamide] | 0.163 | 0.224 | – | –
25 | COCC(=O)NC(Cc1ccc(F)cc1)C(O)CNC1CC2(CC(O)C2)Oc2ncc(CC(C)C)cc21 [compound 249, N-((1S,2R)-1-((4-fluorophenyl)methyl)-2-hydroxy-3-(((1s,3S,4′S)-3-hydroxy-6′-(2-methylpropyl)-3′,4′-dihydrospiro[cyclobutane-1,2′-pyrano[2,3-b]pyridin]-4′-yl)amino)propyl)-2-(methyloxy)acetamide] | 0.0065 | 0.0113 | – | –
26 | CC(=O)N[C@@H](Cc1ccc(F)cc1)[C@H](O)CN[C@H]1CC2(CCC2)C(F)(F)c2ncc(CC(C)(C)C)cc21 [compound 165] | – | 0.109 | 0.107 | –
27 | COC(C)C(=O)NC(Cc1ccc2c(c1)OCO2)C(O)CNC1CC2(CC(F)C2)Oc2ncc(CC(C)(C)C)cc21 [compound 241, (2R)—N-((1S,2R)-1-(1,3-benzodioxol-5-ylmethyl)-3-(((1s,3S,4′S)-6′-(2,2-dimethylpropyl)-3-fluoro-3′,4′-dihydrospiro[cyclobutane-1,2′-pyrano[2,3-b]pyridin]-4′-yl)amino)-2-hydroxypropyl)-2-(methyloxy)propanamide] | 0.00628 | 0.0336 | – | –
28 | COCC(=O)N[C@@H](Cc1ccc2c(c1)OCO2)[C@H](O)CN[C@H]1CC2(CCC2)Oc2ncc(CC(C)(F)F)cc21 [compound 276] | 0.076 | 0.0872 | – | –
29 | CC(=O)N[C@@H](Cc1ccc(F)cc1)[C@H](O)CNC1c2cc(CC(C)(C)C)cnc2OC2(CCC2)C1F (stereo partly drawn) [compound 355] | – | – | – | IC50 [1, 5]: 0.117 µM; IC50 [2, 6]: 0.113 µM
30 | CC(=O)N[C@@H](Cc1cccc(F)c1)[C@H](O)CN[C@H]1CC2(CCC2)Oc2ncc(C[C@@H](C)C(F)(F)F)cc21 [compound 315] | – | – | – | IC50 [1, 5]: 0.00611 µM; IC50 [2, 6]: 0.00943 µM
31 | CC(=O)N[C@@H](Cc1ccc(F)cc1)[C@H](O)CN[C@H]1C[C@]2(CC[C@@H]2O)Oc2ncc(CC(C)(C)C)cc21 [compound 117] | – | 0.0336 | 0.00785 | –
32 | COCC(=O)N[C@@H](Cc1cccc(F)c1)[C@H](O)CN[C@H]1CC2(CCC2)Oc2ncc(CC(C)(C)C(F)(F)F)cc21 [compound 73] | – | 0.0531 | 0.016 | –
33 | CC(=O)N[C@@H](Cc1cccc(F)c1)[C@H](O)CN[C@H]1CC2(CCC2)Oc2ncc(CC(C)(F)F)cc21 [compound 277] | 0.00613 | 0.00936 | – | –
34 | CC#Cc1cccc(C[C@H](NC(=O)[C@@H](C)OC)[C@H](O)CN[C@H]2CC3(CCC3)Oc3ncc(CC(C)C)cc32)c1 [compound 803] | – | – | – | IC50 [1, 8]: 0.022 µM; IC50 ([2]; Homo sapiens, HEK293, HEK cell-based assay, IC50's in uM, read-out: HEK cell assay): 0.132 µM
35 | COCC(=O)N[C@@H](Cc1cccc(C(N)=O)c1)[C@H](O)CN[C@H]1CC2(CCC2)Oc2ncc(CC(C)(C)F)cc21 [compound 863] | – | – | – | IC50 [1, 8]: 0.013 µM; IC50 [2, 9]: 0.033 µM
36 | COC(OC)C(=O)N[C@@H](Cc1cccc(C(N)=O)c1)[C@H](O)CN[C@H]1CC2(CCC2)Oc2ncc(CC(C)(C)F)cc21 [compound 864] | – | – | – | IC50 [1, 8]: 0.04 µM; IC50 [2, 9]: 0.117 µM
37 | CC(C)(C)Cc1cnc2c(c1)[C@@H](NC[C@@H](O)[C@H](Cc1cccc(F)c1)NC(=O)C1CN(C3CCC3)C(=O)C1(C)C)CC1(CCC1)O2 (stereo partly drawn) [compound 66] | – | 1.11 | 0.0436 | –
38 | COCC(=O)N[C@@H](Cc1cc(Br)c2c(c1)OCO2)[C@H](O)CN[C@H]1CC2(CCC2)Oc2ncc(CC(C)(C)C)cc21 [compound 204] | 0.0956 | 0.0824 | – | –
39 | COCCNc1nc(CC(C)(C)C)cc2c1OC1(CCC1)C[C@@H]2NC[C@@H](O)[C@H](Cc1ccc(F)cc1)NC(=O)COC [compound 150] | – | 0.0226 | 0.0479 | –
40 | CC(=O)N[C@@H](Cc1ccc(F)cc1)[C@H](O)CN[C@H]1CC2(CCC2)Oc2c(F)cc(CC(C)(C)C#N)cc21 [compound 171] | – | 0.0282 | 0.0159 | –
41 | CC(=O)N[C@@H](Cc1ccc(F)cc1)[C@H](O)CN[C@H]1CC2(CCC2)Oc2ncc(C[C@@H](C)C(F)F)cc21 [compound 199] | 0.0452 | 0.0591 | – | –
42 | COCC(=O)N[C@@H](Cc1ccc2c(c1)OC(C)(C)O2)[C@H](O)CN[C@H]1CC2(CCC2)Oc2ncc(CC(C)(C)C)cc21 [compound 293] | 0.484 | 0.333 | – | –
